The test system of the assay is mature cardiac construct. As to the kind of experiment: drug screening on mature cardiac construct in the microfluidic device (spontaneous contraction frequency). The class given is cell-based, neonatal rats. The note with it: increasing concentrations 1 and 2 μg/ml in culture medium injected in sequence; evaluated 60 seconds after injection; 37° C.; with respect to control construct without drug.

Protocol: The cells of interest were isolated using the following process. The cardiac tissue removed from the ventricles of neonatal rats was digested in trypsin (0.6 mg/ml, in a Hank balanced saline solution, HBSS) for 18 hours. The digestion was then blocked by adding 10 ml of culture medium (Dulbecco Modified Eagle's Medium, DMEM) containing: 10% of fetal bovine serum, 1% of penicillin-streptomycin, 1% of HEPES and 1% of L-Glutamine. The isolation of the cells from the matrix was then obtained with five passages in a solution of collagenase (1 mg/ml in HBSS) at 37° C. for 5 minutes. The cell suspension thus obtained was centrifuged at 700 rpm for 10 minutes, re-suspended in 25 ml of culture medium and seeded in a culture flask to isolate the fraction of cardiomyocytes (non-adherent).
For seeding inside the device, the cardiac cells thus isolated were diluted in a solution of fibrin gel at a cell concentration of 1×10^5 cells/μl. More specifically, for the seeding of 6 devices, 20 μl of fibrin gel were prepared by mixing 20×10^5 cells (estimated volume of 8.2 μl), 4 μl of calcium chloride, 4 μl of fibrinogen (20 mg/ml in sodium chloride), 2.8 μl of aprotinin (16 TIU/ml in distilled water) and 1 μl of thrombin (5 U/ml in calcium chloride). […]

Take `CCN(CC)CC(=O)Nc1c(C)cccc1C` [lidocaine]: the spontaneous contraction frequency result is recorded as “decrease in the contraction frequency”.
